Source: patent publication US20240150377A1, “MODULATORS OF CYSTIC FIBROSIS TRANSMEMBRANE CONDUCTANCE REGULATOR” (VERTEX PHARMACEUTICALS INCORPORATED, priority 2020, published 2024)
Where two headings read alike, the source gives them in different places. Blank lines part the entries; values can stand above or below the compound they belong to.

Target: T1, CFTR (Homo sapiens, UniProt P13569, DEL508-508)
T1 construct: endogenous in cells; host or cells: primary human bronchial epithelial cells from CF subjects (F508del/MF-HBE), differentiated at air-liquid interface
Assay: HBE assay: Ussing chamber assay of CFTR-mediated short-circuit currents
Format: cell-based
Settings: for EC50: read-out: HBE EC50; for activation at 10 µM: read-out: HBE Activity at 10 μM (%)
Outline: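 CFTR-mediated Isc (μA/cm²) equals the peak response to apical 20 μM forskolin minus the residual after a 20 μM each BPO/GlyH-101/CFTR inhibitor 172 cocktail, recorded in Ussing chambers at Vhold 0 mV, 37 °C, pH 7.4, with 30 μM apical amiloride. Cells were F508del/MF HBE cultures preincubated 18-24 h with corrector (concentration range or 10 μM) plus 1 μM ivacaftor in 20% human serum.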

[1] = Table 13, read-out: HBE Max Activity (%)
[2] = Table 10, read-out: HBE Max activity (%)
[3] = HBE assay, read-out: HBE Max activity (%)
[4] = Table 11, read-out: HBE Max Activity (%)
[5] = Table 12, read-out: HBE Max Activity (%)

T1 sequence (P13569 with tags, fused parts or gaps DEL508-508): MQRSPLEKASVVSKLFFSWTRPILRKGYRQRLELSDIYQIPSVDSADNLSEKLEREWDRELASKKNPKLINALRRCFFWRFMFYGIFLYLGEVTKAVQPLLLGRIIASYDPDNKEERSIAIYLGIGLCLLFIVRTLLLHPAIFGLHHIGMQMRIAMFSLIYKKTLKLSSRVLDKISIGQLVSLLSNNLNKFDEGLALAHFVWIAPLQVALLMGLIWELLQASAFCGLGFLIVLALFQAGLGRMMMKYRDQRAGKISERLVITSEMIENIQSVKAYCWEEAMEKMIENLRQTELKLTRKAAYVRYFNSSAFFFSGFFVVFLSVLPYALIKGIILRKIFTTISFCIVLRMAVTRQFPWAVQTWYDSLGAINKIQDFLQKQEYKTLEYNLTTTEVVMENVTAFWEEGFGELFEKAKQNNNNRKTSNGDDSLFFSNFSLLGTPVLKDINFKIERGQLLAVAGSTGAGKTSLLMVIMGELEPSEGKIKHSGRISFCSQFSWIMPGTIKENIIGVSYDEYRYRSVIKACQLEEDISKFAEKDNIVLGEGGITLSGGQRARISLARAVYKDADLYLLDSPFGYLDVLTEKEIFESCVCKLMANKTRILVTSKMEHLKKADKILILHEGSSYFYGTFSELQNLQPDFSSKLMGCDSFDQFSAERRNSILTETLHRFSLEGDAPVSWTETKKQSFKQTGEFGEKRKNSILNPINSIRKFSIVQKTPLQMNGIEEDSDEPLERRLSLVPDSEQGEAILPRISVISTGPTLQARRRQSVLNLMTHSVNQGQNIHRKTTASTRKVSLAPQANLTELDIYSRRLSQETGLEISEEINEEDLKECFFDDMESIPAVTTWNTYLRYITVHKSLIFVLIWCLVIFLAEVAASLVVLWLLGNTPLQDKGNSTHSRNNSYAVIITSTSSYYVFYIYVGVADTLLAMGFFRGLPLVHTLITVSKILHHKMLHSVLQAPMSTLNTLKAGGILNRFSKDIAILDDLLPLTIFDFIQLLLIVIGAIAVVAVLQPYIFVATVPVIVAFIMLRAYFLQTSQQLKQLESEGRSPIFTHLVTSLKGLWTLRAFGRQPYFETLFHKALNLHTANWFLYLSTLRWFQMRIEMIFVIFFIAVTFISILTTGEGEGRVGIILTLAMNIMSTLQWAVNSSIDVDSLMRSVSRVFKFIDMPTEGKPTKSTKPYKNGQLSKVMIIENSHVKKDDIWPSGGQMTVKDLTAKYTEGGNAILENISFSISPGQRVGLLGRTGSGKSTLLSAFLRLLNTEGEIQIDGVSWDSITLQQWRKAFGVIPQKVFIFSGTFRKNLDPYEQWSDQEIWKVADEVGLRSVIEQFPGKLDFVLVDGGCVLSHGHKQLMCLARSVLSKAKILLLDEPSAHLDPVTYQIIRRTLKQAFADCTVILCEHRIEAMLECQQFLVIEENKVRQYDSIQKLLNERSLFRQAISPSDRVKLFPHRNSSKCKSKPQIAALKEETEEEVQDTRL

EC50 (Table 13): < 1 µM
Emax [1]: > 60%
SMILES: CCCCN(c1cccc(CN2C(=O)c3cccc(c3)S(=O)(=O)Nc3nc(cc(-c4c(C)cccc4C)n3)OC[C@H]2CC(C)(C)C)n1)C(C)C [Compound 1137]

Emax [2]: > 60%
SMILES: Cc1cccc(C)c1-c1cc2nc(n1)NS(=O)(=O)c1cccc(c1)C(=O)N(CC1CCCCO1)[C@H](CC(C)(C)C)CO2 (stereo partly drawn) [Compound 833]

activation at 10 µM (Table 12, at 10 μM): > 600%
SMILES: Cc1cnc(CN2C(=O)c3cccc(c3)S(=O)(=O)Nc3nc(cc(-c4c(C)cccc4C)n3)OC[C@H]2CC(C)(C)C)nc1N(C)C(C)C [Compound 330]

EC50 (Table 10): < 1 µM
Emax [2]: > 60%
SMILES: Cc1cccc(C)c1-c1cc2nc(n1)NS(=O)(=O)c1cccc(c1)C(=O)N(Cc1ccc(-c3cn[nH]c3)cn1)[C@H](CC(C)(C)C)CO2 [Compound 299]

EC50 (HBE assay): < 1 µM
Emax [3]: > 60%
SMILES: Cc1cccc(C)c1-c1cc2nc(n1)NS(=O)(=O)c1cccc(c1)C(=O)N(Cc1ncc(OCC3CC3)cn1)[C@H](CC(C)(C)C)CO2 [Compound 1390]

activation at 10 µM (Table 12, at 10 μM): > 600%
SMILES: Cc1cnc(CN2C(=O)c3cccc(c3)S(=O)(=O)Nc3nc(cc(-c4c(C)cccc4C)n3)OC[C@H]2CC(C)(C)C)nc1N1CCCC1(C)C [Compound 327]

EC50 (HBE assay): < 1 µM
Emax [3]: > 60%
SMILES: Cc1cccc(C)c1-c1cc2nc(n1)NS(=O)(=O)c1cccc(c1)C(=O)N(Cc1cccc(N(C)CC3(C)CC3)n1)[C@H](CC(C)(C)C)CO2 [Compound 1354]

EC50 (Table 13): < 1 µM
Emax [1]: > 60%
SMILES: Cc1cccc(C)c1-c1cc2nc(n1)NS(=O)(=O)c1cccc(c1)C(=O)N(Cc1nccc(NC(C)C)c1F)[C@H](CC(C)(C)C)CO2 [Compound 1132]

activation at 10 µM (Table 13, at 10 μM): > 600%
SMILES: Cc1cccc(C)c1-c1cc2nc(n1)NS(=O)(=O)c1cccc(c1)C(=O)N(CC(=O)N1CCCCC1c1ccccc1)[C@H](CC(C)(C)C)CO2 (stereo partly drawn) [Compound 196]

Emax [2]: > 60%
SMILES: Cc1cccc(C)c1-c1cc2nc(n1)NS(=O)(=O)c1cccc(c1)C(=O)N(Cc1cnn(C(C)(C)C)c1)[C@H](CC(C)(C)C)CO2 [Compound 481]

EC50 (HBE assay): < 1 µM
Emax [3]: > 60%
SMILES: Cc1cccc(C)c1-c1cc2nc(n1)NS(=O)(=O)c1cccc(c1)C(=O)N(Cc1ncc(N3CC(C)C3)cn1)[C@H](CC(C)(C)C)CO2 [Compound 1403]

HBE Max activity (%) (Table 11): +++ (+++ is >60%)
EC50 (Table 11): < 1 µM
SMILES: Cc1cccc(C)c1-c1cc2nc(n1)NS(=O)(=O)c1cccc(c1)C(=O)N(Cc1nccc(N3CCC(C)(C)CC3)n1)[C@H](CC(C)(C)C)CO2 [Compound 636]

activation at 10 µM (HBE assay, 10 μM): > 60%
SMILES: Cc1cccc(C)c1-c1cc2nc(n1)NS(=O)(=O)c1cccc(c1)C(=O)N(Cc1ncc(OC(C)C)cn1)C(C(C)C(C)C)CO2 (stereo not drawn) [Compound 1466]

EC50 (Table 10): < 1 µM
Emax [2]: > 60%
SMILES: COC[C@]1(O)CC[C@@H](CN2C(=O)c3cccc(c3)S(=O)(=O)Nc3nc(cc(-c4c(C)cccc4C)n3)OC[C@H]2CC(C)(C)C)CC1 [Compound 907]

activation at 10 µM (HBE assay, 10 μM): > 60%
SMILES: Cc1cccc(C)c1-c1cc2nc(n1)NS(=O)(=O)c1cccc(c1)C(=O)N(Cc1ncc(N3CCC4(CC4)C3)cn1)[C@H](CC(C)(C)C)CO2 [Compound 1504]

EC50 (Table 11): < 1 µM
Emax [4]: > 60%
SMILES: Cc1cccc(C)c1-c1cc2nc(n1)NS(=O)(=O)c1cccc(c1)C(=O)N(Cc1cnc(N3CCC(C)(C)CC3)cn1)[C@H](CC(C)(C)C)CO2 [Compound 608]

EC50 (HBE assay): < 1 µM
SMILES: Cc1cccc(C)c1-c1cc2nc(n1)NS(=O)(=O)c1cccc(c1)C(=O)N(Cc1ccnc(N3CCC[C@H]3C(C)C)n1)[C@H](CC(C)(C)C)CO2 (stereo in doubt) [Compound 1476]

EC50 (Table 12): < 1 µM
Emax [5]: > 60%
SMILES: Cc1cccc(C)c1-c1cc2nc(n1)NS(=O)(=O)c1cccc(c1)C(=O)N(Cc1ccn(C3CCC3)n1)[C@H](CC(C)(C)C)CO2 [Compound 461]

EC50 (Table 13): < 1 µM
Emax [1]: > 60%
SMILES: Cc1cccc(C)c1-c1cc2nc(n1)NS(=O)(=O)c1cccc(c1)C(=O)N(Cc1cccc(C(=O)N3CCC(C)(C)C3)n1)[C@H](CC(C)(C)C)CO2 [Compound 1138]

EC50 (Table 11): < 1 µM
Emax [4]: > 60%
SMILES: Cc1cccc(C)c1-c1cc2nc(n1)NS(=O)(=O)c1cccc(c1)C(=O)N(Cc1ncc(OC(C)C)c(C)n1)[C@H](CC(C)(C)C)CO2 [Compound 610]

activation at 10 µM (Table 12, at 10 μM): > 600%
SMILES: Cc1cccc(C)c1-c1cc2cc(n1)NS(=O)(=O)c1cccc(c1)C(=O)N(Cc1ncc(CC(C)C)cn1)[C@H](CC(C)(C)C)CO2 [Compound 523]

EC50 (Table 10): < 1 µM
Emax [2]: > 60%
SMILES: Cc1ccc2ccccc2c1-c1cc2nc(n1)NS(=O)(=O)c1cccc(c1)C(=O)N(Cc1ccc(N3CCOCC3)cn1)[C@H](CC(C)(C)C)CO2 [Compound 1075]

activation at 10 µM (Table 12, at 10 μM): > 600%
SMILES: Cc1cccc(C)c1-c1cc2nc(n1)NS(=O)(=O)c1cccc(c1)C(=O)N(CC(=O)N(C)CCN(C)C)[C@H](CC(C)(C)C)CO2 [Compound 224]

EC50 (Table 12): < 1 µM
Emax [5]: > 60%
SMILES: Cc1cccc(C)c1-c1cc2nc(n1)NS(=O)(=O)c1cccc(c1)C(=O)N(Cc1ccnc(OC(C)C)n1)[C@H](CC(C)(C)C)CO2 [Compound 595]

EC50 (Table 13): < 1 µM
Emax [1]: > 60%
SMILES: Cc1cccc(C)c1-c1cc2nc(n1)NS(=O)(=O)c1cccc(c1)C(=O)N(Cc1ncc(N3CC4(COC4)C3)cn1)[C@H](CC(C)(C)C)CO2 [Compound 867]

EC50 (HBE assay): < 1 µM
Emax [3]: > 60%
SMILES: Cc1cccc(C)c1-c1cc2nc(n1)NS(=O)(=O)c1cccc(c1)C(=O)N(Cc1ncc(O[C@@H](C)C(C)C)cn1)[C@H](CC(C)(C)C)CO2 [Compound 1301, (11R)-6-(2,6-Dimethylphenyl)-12-[[5-[(1S)-1,2-dimethylpropoxy]pyrimidin-2-yl]methyl]-11-(2,2-dimethylpropyl)-2,2-dioxo-9-oxa-2λ^6-thia-3,5,12,19-tetrazatricyclo[12.3.1.14,8]nonadeca-1(18),4(19),5,7,14,16-hexaen-13-one]

EC50 (Table 12): < 1 µM
SMILES: Cc1cccc(C)c1-c1cc2nc(n1)NS(=O)(=O)c1cccc(c1)C(=O)N(Cc1ncc(N3CC4CC3CO4)cn1)[C@H](CC(C)(C)C)CO2 (stereo partly drawn) [Compound 546]

activation at 10 µM (HBE assay, 10 μM): > 60%
EC50 (HBE assay): < 1 µM
Emax [3]: > 60%
SMILES: Cc1cccc(C)c1-c1cc2nc(n1)NS(=O)(=O)c1cccc(c1)C(=O)N(Cc1cncc(N3CCC[C@H]3C(C)C)n1)[C@H](CC1CC1)CO2 [Compound 1499]

activation at 10 µM (Table 12, at 10 μM): > 600%
SMILES: Cc1ccccc1CNC(=O)CN1C(=O)c2cccc(c2)S(=O)(=O)Nc2nc(cc(-c3c(C)cccc3C)n2)OC[C@H]1CC(C)(C)C [Compound 217]

activation at 10 µM (Table 11, at 10 μM): > 60%
SMILES: Cc1cccc(C)c1-c1cc2nc(n1)NS(=O)(=O)c1cccc(c1)C(=O)N(Cc1ccc(OCC(C)C)cn1)[C@H](CC(C)(C)C)CO2 [Compound 747]

activation at 10 µM (HBE assay, 10 μM): > 60%
SMILES: Cc1cccc(C)c1-c1cc2nc(n1)NS(=O)(=O)c1cccc(c1)C(=O)N(Cc1ncc3c(n1)CCOC3)[C@H](CC(C)(C)C)CO2 [Compound 1362]

EC50 (HBE assay): < 1 µM
Emax [3]: > 60%
SMILES: Cc1cccc(C)c1-c1cc2nc(n1)NS(=O)(=O)c1cccc(c1)C(=O)N(Cc1ncc(N3CC[C@](C)(F)C3)cn1)[C@H](CC(C)(C)C)CO2 [Compound 1440]

EC50 (Table 10): < 1 µM
Emax [2]: > 60%
SMILES: Cc1cccc(C)c1-c1cc2nc(n1)NS(=O)(=O)c1cccc(c1)C(=O)N(Cc1cccc(-c3c(C)n[nH]c3C)c1)[C@H](CC(C)(C)C)CO2 [Compound 313]

activation at 10 µM (Table 12, at 10 μM): > 600%
SMILES: Cc1cccc(C)c1-c1cc2nc(n1)NS(=O)(=O)c1cccc(c1)C(=O)N(Cc1cncc(N3CCC[C@@H]3C)c1)[C@H](CC(C)(C)C)CO2 [Compound 283]
